What was measured:
[1] = Inhibition of DNA-PK (unknown origin); set-up: species or system Homo sapiens
[2] = system: HT-29; test: Antiproliferative activity against human HT-29 cells incubated for 72 hrs by CCK-8 assay; type: functional, cell-based; conditions: HT-29, 72 h
[3] = Initial plasma concentration in ICR mouse at 1 mg/kg, iv measured upto 24 hrs by LC-MS/MS analysis; type: ADME, organism-based
[4] = Tmax in ICR mouse at 10 mg/kg, po measured upto 24 hrs by LC-MS/MS analysis; type: ADME, organism-based; conditions: in vivo
[5] = Half life in ICR mouse at 1 mg/kg, iv measured upto 24 hrs by LC-MS/MS analysis; type: ADME, organism-based; conditions: in vivo
[6] = target: Serine/threonine-protein kinase ATR (Homo sapiens, UniProt Q13535); test: Inhibition of ATR (unknown origin)
[7] = AUC (0 to t) in ICR mouse at 10 mg/kg, po measured upto 24 hrs by LC-MS/MS analysis; type: ADME, organism-based; set-up: dose 10 mg/kg, time < 24 hrs, route po; conditions: in vivo
[8] = Clearance in ICR mouse at 1 mg/kg, iv measured upto 24 hrs by LC-MS/MS analysis; type: ADME, organism-based; conditions: in vivo, iv, 1 mg/kg, 24 h
[9] = target: Cytochrome P450 3A4 (Homo sapiens, UniProt P08684); test: Inhibition of CYP3A4 (unknown origin); type: ADME
[10] = Acute toxicity in ICR mouse assessed as mortality at 2000 mg/kg, po measured after 14 days; type: organism-based; conditions: in vivo, 336 h, time 14 day
[11] = system: LoVo; test: Antiproliferative activity against human LoVo cells incubated for 72 hrs by CCK-8 assay; type: functional, cell-based
[12] = Half life in ICR mouse at 10 mg/kg, po measured upto 24 hrs by LC-MS/MS analysis; type: ADME, organism-based; conditions: in vivo
[13] = Toxicity in ICR male mouse assessed as mortality at 2000 mg/kg, po measured after 14 days; type: organism-based; conditions: in vivo, 336 h, time 14 day
[14] = Volume of distribution at steady state in ICR mouse at 1 mg/kg, iv measured upto 24 hrs by LC-MS/MS analysis; type: ADME, organism-based; conditions: in vivo, iv, 1 mg/kg, 24 h
[15] = AUC (0 to t) in ICR mouse at 1 mg/kg, iv measured upto 24 hrs by LC-MS/MS analysis; type: ADME, organism-based; set-up: dose 1 mg/kg, time < 24 hrs, route iv; conditions: in vivo
[16] = Tmax in ICR mouse at 1 mg/kg, iv measured upto 24 hrs by LC-MS/MS analysis; type: ADME, organism-based; conditions: in vivo
[17] = target: Serine/threonine-protein kinase mTOR (Homo sapiens, UniProt P42345); test: Inhibition of mTOR (unknown origin)
[18] = system: LoVo; test: Antitumor activity against human LoVo cells xenografted in BALB/c mouse assessed as tumor growth inhibition at 50 mg/kg, po bid administered for 21 consecutive days relative to control; type: functional; conditions: 504 h, time 21 day, read-out: TGI
[19] = MRT (0 to infinity) in ICR mouse at 1 mg/kg, iv measured upto 24 hrs by LC-MS/MS analysis; type: ADME, organism-based; conditions: in vivo, iv, 1 mg/kg, 24 h
[20] = AUC (0 to infinity) in ICR mouse at 10 mg/kg, po measured upto 24 hrs by LC-MS/MS analysis; type: ADME, organism-based; set-up: dose 10 mg/kg, time < 24 hrs, route po; conditions: in vivo
[21] = Cmax in ICR mouse at 1 mg/kg, iv measured upto 24 hrs by LC-MS/MS analysis; type: ADME, organism-based; set-up: time < 24 hrs, dose 1 mg/kg, route iv; conditions: in vivo
[22] = MRT (0 to t) in ICR mouse at 1 mg/kg, iv measured upto 24 hrs by LC-MS/MS analysis; type: ADME, organism-based; conditions: in vivo
[23] = MRT (0 to t) in ICR mouse at 10 mg/kg, po measured upto 24 hrs by LC-MS/MS analysis; type: ADME, organism-based; conditions: in vivo
[24] = MRT (0 to infinity) in ICR mouse at 10 mg/kg, po measured upto 24 hrs by LC-MS/MS analysis; type: ADME, organism-based; conditions: in vivo
[25] = Toxicity in po dosed ICR mouse assessed as mortality measured after 14 days; type: organism-based; conditions: in vivo, time 14 day
[26] = Toxicity in ICR mouse assessed as body weight change at 2000 mg/kg, po measured after 14 days; type: organism-based; conditions: in vivo, 336 h, time 14 day
[27] = Oral bioavailability in ICR mouse at 10 mg/kg measured upto 24 hrs by LC-MS/MS analysis; type: ADME, organism-based; conditions: in vivo
[28] = system: LoVo; test: Antitumor activity against human LoVo cells xenografted in BALB/c mouse assessed as tumor growth inhibition at 50 mg/kg, po qd administered for 21 consecutive days relative to control; type: functional; conditions: 504 h, time 21 day, read-out: TGI
[29] = Cmax in ICR mouse at 10 mg/kg, po measured upto 24 hrs by LC-MS/MS analysis; type: ADME, organism-based; set-up: time < 24 hrs, dose 10 mg/kg, route po; conditions: in vivo
[30] = system: HT-29; test: Antiproliferative activity against human HT-29 cells in presence of AZD1390 incubated for 72 hrs by CCK-8 assay; type: functional, cell-based; conditions: HT-29, 72 h
[31] = target: T1, Cytochrome P450 1A2 (Homo sapiens, UniProt P05177); test: Inhibition of CYP1A2 (unknown origin); type: ADME
T1 sequence (P05177 whole entry): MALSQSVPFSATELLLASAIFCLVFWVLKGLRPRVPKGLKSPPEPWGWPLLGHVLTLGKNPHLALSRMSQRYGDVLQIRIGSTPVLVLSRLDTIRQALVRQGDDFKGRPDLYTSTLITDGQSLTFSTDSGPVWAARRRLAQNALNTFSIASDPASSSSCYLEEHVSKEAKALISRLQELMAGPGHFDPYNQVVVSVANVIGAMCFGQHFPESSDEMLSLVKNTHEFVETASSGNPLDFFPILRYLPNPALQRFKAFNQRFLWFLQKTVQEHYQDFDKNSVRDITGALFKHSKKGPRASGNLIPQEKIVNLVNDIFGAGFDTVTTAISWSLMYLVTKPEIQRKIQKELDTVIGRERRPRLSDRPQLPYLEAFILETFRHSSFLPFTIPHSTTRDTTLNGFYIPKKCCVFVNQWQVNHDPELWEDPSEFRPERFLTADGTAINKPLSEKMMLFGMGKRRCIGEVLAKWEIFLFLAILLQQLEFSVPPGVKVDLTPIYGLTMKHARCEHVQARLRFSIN

[32] = AUC (0 to infinity) in ICR mouse at 1 mg/kg, iv measured upto 24 hrs by LC-MS/MS analysis; type: ADME, organism-based; set-up: dose 1 mg/kg, time < 24 hrs, route iv; conditions: in vivo

Chain of Serine/threonine-protein kinase ATR (Q13535 whole entry): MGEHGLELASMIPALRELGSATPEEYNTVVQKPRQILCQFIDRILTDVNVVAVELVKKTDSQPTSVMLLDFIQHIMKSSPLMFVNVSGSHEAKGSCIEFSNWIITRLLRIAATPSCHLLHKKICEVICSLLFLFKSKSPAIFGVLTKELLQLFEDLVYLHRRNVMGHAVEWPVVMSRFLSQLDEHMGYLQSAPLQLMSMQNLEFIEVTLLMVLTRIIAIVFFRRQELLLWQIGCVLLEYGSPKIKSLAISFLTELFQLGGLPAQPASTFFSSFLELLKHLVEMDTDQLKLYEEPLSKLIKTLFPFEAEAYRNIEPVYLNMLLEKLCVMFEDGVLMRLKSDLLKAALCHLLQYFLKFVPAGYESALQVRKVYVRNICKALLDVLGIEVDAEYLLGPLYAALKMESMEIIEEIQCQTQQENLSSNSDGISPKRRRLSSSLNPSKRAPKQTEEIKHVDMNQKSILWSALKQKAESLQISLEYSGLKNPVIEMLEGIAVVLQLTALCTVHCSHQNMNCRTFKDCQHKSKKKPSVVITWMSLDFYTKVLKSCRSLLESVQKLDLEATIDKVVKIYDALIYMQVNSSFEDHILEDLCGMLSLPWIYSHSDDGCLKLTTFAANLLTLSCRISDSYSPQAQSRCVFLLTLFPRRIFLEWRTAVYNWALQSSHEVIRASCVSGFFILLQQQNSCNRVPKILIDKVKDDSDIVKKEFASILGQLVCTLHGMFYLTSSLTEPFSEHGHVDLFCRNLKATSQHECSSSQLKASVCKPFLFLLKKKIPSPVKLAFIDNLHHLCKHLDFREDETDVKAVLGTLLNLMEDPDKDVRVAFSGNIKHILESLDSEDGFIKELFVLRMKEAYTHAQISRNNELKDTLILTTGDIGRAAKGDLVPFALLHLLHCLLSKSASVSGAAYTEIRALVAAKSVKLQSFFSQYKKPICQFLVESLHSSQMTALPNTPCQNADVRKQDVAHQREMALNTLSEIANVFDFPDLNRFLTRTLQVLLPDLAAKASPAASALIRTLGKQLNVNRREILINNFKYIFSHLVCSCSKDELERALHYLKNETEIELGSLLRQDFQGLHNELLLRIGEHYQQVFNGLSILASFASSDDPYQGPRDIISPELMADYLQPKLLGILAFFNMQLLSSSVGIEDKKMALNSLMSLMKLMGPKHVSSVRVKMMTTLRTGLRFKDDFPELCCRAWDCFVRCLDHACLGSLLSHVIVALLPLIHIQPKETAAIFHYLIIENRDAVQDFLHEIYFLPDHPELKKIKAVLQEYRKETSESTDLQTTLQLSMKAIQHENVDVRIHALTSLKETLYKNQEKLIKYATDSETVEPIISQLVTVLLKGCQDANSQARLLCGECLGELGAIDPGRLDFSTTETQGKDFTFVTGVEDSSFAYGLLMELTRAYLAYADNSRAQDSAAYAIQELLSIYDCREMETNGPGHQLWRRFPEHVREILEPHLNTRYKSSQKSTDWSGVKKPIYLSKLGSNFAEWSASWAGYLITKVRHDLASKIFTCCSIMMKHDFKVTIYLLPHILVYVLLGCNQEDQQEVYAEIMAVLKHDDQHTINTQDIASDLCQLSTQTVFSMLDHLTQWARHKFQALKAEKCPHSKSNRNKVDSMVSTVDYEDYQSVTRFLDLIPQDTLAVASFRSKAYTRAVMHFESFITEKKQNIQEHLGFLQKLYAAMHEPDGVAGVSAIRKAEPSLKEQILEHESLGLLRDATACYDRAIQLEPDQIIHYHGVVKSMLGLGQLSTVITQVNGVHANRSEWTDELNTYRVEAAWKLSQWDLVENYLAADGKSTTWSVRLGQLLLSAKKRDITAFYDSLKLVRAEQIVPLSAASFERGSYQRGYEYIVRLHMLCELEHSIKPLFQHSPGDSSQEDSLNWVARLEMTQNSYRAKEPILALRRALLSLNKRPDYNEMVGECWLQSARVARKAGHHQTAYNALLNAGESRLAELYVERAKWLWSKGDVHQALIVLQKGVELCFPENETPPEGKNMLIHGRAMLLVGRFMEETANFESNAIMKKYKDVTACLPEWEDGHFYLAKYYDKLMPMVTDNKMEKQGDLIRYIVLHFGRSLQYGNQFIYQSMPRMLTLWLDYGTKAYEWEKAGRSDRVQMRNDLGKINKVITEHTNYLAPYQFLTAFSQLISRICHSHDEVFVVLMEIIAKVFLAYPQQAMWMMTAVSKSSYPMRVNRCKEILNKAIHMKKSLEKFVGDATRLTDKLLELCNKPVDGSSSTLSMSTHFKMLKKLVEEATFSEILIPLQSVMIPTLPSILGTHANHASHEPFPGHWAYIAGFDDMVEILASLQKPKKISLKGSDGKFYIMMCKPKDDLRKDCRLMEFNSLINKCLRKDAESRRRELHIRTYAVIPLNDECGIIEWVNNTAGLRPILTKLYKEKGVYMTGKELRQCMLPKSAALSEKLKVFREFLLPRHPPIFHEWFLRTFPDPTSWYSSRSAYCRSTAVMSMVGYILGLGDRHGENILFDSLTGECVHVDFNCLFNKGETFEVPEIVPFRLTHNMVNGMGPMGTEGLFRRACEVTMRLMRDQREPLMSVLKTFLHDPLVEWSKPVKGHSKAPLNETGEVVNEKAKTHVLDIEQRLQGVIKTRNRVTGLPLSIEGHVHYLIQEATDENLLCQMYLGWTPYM
Chain of Cytochrome P450 3A4 (P08684 whole entry): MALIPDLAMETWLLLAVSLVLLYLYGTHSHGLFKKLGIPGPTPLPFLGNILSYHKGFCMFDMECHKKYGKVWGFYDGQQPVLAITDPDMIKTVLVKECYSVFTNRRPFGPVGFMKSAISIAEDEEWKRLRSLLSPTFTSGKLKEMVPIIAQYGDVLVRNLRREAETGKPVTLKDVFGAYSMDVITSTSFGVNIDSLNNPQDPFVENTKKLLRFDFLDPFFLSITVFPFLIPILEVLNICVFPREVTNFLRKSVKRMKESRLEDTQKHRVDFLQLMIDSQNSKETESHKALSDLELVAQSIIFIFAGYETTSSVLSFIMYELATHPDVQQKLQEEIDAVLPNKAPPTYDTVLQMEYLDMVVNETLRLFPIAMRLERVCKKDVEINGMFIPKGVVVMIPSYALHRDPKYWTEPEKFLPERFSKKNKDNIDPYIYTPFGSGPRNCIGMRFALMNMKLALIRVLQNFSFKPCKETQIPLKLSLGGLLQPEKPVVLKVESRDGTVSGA

## CNc1nc2ccccc2n1-c1nc(N2CCOC[C@H]2C)c2scc(S(C)(=O)=O)c2n1
[1]
  IC50: 25.3 nM
[2]
  IC50: 161 nM
[3]
  C0 at 24 h: 1310 ng/mL
[4]
  Tmax: 15 min
[5]
  half-life: 93.6 min
[6]
  IC50: 1.5 nM
[7]
  AUC(0-t) at 24 h: 4300 ng·h/mL
[8]
  CL: 1041 mL/kg/h
[9]
  inhibition (INH): Not Active
[10]
  Activity: Toxic
[11]
  IC50: 73 nM
[12]
  half-life: 304 min
[13]
  Activity: Toxic
[14]
  Vdss: 2371 mL/kg
[15]
  AUC(0-t) at 24 h: 954 ng·h/mL
[16]
  Tmax: 4.8 min
[17]
  IC50: 58.8 nM
[18]
  inhibition in vivo at 50 mg/kg: 55%
[19]
  MRT: 58.2 min
[20]
  AUC(0-inf): 4420 ng·h/mL
[21]
  Cmax: 1140 ng/mL
[22]
  MRT last at 24 h: 53.4 min
[23]
  MRT last at 24 h: 5.3 h
[24]
  MRT inf: 6.2 h
[25]
  LD50 at 336 h: 2000 mg/kg
[26]
  Activity: Non-Toxic
[27]
  bioavailability: 46%
[28]
  inhibition in vivo at 50 mg/kg: 32%
[29]
  Cmax: 1270 ng/mL
[30]
  IC50: 3 nM
[31]
  inhibition (INH): Not Active
[32]
  AUC(0-inf): 962 ng·h/mL
